Reference: ChEMBL document CHEMBL1154587, “Discovery of novel sphingosine kinase 1 inhibitors” (Bioorg Med Chem Lett, 2009)
Calls of active or inactive are those of the source. No cut-off for these calls is given here.

How the values were obtained:
[1] = target: T1, Sphingosine kinase 2 (Homo sapiens) (UniProt Q9NRA0); test: Inhibition of sphingosine kinase 2 at 10 uM
T1 sequence (whole entry): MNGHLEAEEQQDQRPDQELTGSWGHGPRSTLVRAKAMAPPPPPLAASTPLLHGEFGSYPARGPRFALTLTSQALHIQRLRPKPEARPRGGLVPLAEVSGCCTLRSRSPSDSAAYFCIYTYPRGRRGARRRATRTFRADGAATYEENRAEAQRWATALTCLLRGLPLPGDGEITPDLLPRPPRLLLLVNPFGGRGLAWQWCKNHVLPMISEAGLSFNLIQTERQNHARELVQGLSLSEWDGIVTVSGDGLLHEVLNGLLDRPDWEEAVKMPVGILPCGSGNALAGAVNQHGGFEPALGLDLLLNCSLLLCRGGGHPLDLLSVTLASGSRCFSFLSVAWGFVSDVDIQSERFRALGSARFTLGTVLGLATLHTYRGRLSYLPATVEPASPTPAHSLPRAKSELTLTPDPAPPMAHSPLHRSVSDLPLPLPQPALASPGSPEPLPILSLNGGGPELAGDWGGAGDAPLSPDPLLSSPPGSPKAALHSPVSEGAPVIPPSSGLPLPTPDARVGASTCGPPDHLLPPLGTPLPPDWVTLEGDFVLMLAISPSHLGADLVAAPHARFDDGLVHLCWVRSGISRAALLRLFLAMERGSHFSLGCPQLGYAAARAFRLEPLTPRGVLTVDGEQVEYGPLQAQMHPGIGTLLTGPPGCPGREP

Sphingosine kinase 1 = Sphingosine kinase 1 (Homo sapiens, UniProt Q9NYA1); test: Inhibition of human sphingosine kinase 1 by off chip mobility shift assay
Chain of Sphingosine kinase 1 (Q9NYA1 whole entry): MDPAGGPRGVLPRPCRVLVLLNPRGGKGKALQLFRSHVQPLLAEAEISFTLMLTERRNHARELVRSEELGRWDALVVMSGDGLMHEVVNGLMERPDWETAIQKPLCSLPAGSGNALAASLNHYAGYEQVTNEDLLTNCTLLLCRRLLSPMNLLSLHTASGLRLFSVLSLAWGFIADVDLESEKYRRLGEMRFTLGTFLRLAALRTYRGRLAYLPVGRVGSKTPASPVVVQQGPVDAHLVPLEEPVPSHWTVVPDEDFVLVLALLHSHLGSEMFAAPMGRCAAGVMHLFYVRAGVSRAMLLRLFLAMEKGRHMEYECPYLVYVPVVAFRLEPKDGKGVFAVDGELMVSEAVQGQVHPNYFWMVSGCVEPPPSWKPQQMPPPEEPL

Row | inhibition [1] | IC50 (Sphingosine kinase 1) [µM] | SMILES
1 | inactive | – | CCCCCCCCc1ccc(CNC(=O)C(N)CCO)cc1 (racemic)
2 | inactive | 6.2 | CCCCCCCCc1ccc(CCNC(=O)[C@H]2NCC[C@@H]2O)cc1
3 | inactive | – | CCCCCCCCCCCCC/C=C/[C@@H](O)[C@H](CO)N(C)C
4 | inactive | – | CCCCCCCCc1ccc(NC(=O)[C@@H](N)CCCCO)cc1
5 | inactive | – | CCCCCCCCc1ccc(NC(=O)[C@@H](N)[C@@H](O)CC)cc1 (racemic)
6 | inactive | – | CCCCCCCCc1ccc(NC(=O)[C@H](N)[C@H](C)O)cc1
7 | inactive | – | CCCCCCCCc1ccc(NC(=O)[C@H](CO)NC)cc1
8 | inactive | – | CCCCCCCCc1ccc(NC(=O)[C@H]2NCC[C@H]2O)cc1
9 | inactive | > 10 | CCCCCCCCc1ccc(NC(=O)[C@@H](N)COC)cc1
10 | inactive | > 10 | CCCCCCCCc1ccc(NC(=O)C(C)(N)CO)cc1 (racemic)
11 | inactive | – | CCCCCCCCc1ccc(NC(=O)[C@@H](N)CCO)cc1
12 | inactive | > 10 | CCCCCCCCc1ccc(CNC(=O)C(N)CO)cc1 (racemic)
13 | inactive | – | CCCCCCCCc1ccc(NC(=O)[C@H](N)[C@@H](C)O)cc1
14 | inactive | – | CCCCCCCCc1ccc(NC(=O)[C@@H](N)[C@H](C)O)cc1
15 | inactive | – | CCCCCCCCc1ccc(NC(=O)[C@H](N)CO)cc1
16 | inactive | – | CCCCCCCCc1ccc(NC(=O)[C@H]2NCC[C@@H]2O)cc1
17 | inactive | – | CCCCCCCCc1ccc(NC[C@@H](N)CO)cc1
18 | inactive | 8.3 | CCCCCCCCc1ccc(NC(=O)[C@H]2NC[C@@H](O)[C@@H]2O)cc1
19 | inactive | – | CCCCCCCCc1ccc(NC[C@H]2NCC[C@@H]2O)cc1
20 | inactive | – | CCCCCCCCc1ccc(NC(=O)[C@@H](N)CO)cc1
21 | inactive | 2.1 | CCCCCCCCc1ccc(NC(=O)C(N)C(C)(C)O)cc1 (racemic)
22 | inactive | > 10 | CCCCCCCCc1ccc(NC(=O)C(N)CCCO)cc1 (racemic)
23 | inactive | > 10 | CCCCCCCCc1ccc(NCC(N)CCO)cc1 (configuration not stated)
24 | inactive | 0.65 | CCCCCCCCc1ccc(NC(=O)[C@@H](N)[C@@H](C)O)cc1
25 | inactive | – | CCCCCCCCc1ccc(NC(=O)[C@H](N)CCO)cc1
26 | inactive | – | CCCCCCCCc1ccc(NC(=O)C(N)CCO)cc1 (racemic)
27 | inactive | 0.43 | CCCCCCCCc1ccc(CNC(=O)[C@H]2NCC[C@@H]2O)cc1
